Measured values: ChEMBL document CHEMBL2385071, “Synthesis and biological investigation of coumarin piperazine (piperidine) derivatives as potential multireceptor atypical antipsychotics” (J Med Chem, 2013)
pKi: −log10 of the molar value.

Assays:
[1] = molecular target: T1, Adrenergic receptor alpha-2 (Rattus norvegicus, UniProt P22086+P19328+P22909)
T1 sequence (P22086 whole entry): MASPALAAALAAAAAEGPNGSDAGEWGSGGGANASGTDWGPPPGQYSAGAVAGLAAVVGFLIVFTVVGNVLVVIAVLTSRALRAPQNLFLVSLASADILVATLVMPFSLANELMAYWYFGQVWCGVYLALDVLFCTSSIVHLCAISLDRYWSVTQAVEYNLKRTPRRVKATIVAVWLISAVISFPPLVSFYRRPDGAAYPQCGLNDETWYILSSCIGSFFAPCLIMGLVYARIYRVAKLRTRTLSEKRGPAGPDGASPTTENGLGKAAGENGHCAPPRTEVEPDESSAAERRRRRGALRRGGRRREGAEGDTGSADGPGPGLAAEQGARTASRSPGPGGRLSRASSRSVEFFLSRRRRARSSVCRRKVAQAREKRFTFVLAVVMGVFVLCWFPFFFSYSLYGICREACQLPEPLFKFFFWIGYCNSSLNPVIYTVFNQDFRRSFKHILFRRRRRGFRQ
T1 sequence (P19328 whole entry): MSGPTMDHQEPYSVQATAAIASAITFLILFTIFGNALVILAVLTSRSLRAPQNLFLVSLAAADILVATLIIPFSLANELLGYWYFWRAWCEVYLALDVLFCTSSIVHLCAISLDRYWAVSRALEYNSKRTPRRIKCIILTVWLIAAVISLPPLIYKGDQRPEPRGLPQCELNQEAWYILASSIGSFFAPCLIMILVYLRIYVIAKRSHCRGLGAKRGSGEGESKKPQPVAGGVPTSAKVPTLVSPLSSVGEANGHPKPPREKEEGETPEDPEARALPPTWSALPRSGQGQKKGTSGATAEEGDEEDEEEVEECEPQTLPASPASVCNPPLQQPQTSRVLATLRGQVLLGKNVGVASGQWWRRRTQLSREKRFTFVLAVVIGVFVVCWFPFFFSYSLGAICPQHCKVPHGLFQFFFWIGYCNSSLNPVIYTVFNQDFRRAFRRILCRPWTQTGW
T1 sequence (P22909 whole entry): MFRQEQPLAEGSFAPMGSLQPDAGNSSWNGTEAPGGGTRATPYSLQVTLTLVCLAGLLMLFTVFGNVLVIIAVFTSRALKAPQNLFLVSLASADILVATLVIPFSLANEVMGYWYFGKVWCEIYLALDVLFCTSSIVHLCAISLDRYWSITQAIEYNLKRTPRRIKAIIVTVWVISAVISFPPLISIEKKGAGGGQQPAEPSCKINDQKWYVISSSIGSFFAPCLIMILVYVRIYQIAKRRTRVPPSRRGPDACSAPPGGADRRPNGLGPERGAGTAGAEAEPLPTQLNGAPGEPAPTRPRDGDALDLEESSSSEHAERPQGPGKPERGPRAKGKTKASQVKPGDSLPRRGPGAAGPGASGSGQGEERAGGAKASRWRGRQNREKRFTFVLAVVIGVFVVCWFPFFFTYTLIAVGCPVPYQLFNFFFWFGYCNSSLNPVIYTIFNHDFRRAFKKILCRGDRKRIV
Description: Displacement of [3H]rauwolscine from alpha-2 adrenergic receptor in rat cerebral cortex after 60 mins by liquid scintillation counting analysis

[2] = molecular target: D(2) dopamine receptor (Rattus norvegicus, UniProt P61169)
[3] = molecular target: T2, Adrenergic receptor alpha-1 (Rattus norvegicus, UniProt P15823+P23944+P43140)
T2 sequence (P15823 whole entry): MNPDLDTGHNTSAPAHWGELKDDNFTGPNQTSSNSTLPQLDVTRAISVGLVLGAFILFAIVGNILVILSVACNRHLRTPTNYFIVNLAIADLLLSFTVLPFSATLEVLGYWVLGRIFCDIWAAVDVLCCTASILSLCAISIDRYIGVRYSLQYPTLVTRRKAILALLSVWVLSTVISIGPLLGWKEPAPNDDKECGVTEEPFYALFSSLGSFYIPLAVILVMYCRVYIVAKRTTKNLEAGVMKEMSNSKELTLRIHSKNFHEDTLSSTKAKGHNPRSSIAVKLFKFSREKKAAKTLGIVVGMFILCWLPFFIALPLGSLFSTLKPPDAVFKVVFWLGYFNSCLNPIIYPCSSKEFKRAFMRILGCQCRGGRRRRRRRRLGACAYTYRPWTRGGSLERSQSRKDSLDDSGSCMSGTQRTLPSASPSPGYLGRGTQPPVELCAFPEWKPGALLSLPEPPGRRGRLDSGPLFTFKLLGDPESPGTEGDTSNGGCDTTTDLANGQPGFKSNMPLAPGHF
T2 sequence (P23944 whole entry): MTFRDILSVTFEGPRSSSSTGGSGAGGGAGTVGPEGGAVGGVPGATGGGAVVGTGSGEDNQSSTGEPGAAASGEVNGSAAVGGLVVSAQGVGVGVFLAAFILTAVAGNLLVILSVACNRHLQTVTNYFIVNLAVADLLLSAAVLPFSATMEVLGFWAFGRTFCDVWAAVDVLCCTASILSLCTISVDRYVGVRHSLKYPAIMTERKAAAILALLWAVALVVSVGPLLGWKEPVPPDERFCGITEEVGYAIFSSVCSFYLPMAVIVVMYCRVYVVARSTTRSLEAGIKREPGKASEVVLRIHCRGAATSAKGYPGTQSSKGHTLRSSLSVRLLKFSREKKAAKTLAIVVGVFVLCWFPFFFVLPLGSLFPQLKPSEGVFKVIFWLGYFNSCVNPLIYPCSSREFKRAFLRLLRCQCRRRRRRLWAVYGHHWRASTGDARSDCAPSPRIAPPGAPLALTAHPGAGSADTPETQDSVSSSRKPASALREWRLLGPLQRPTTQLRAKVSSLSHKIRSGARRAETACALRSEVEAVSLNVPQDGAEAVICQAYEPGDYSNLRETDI
T2 sequence (P43140 whole entry): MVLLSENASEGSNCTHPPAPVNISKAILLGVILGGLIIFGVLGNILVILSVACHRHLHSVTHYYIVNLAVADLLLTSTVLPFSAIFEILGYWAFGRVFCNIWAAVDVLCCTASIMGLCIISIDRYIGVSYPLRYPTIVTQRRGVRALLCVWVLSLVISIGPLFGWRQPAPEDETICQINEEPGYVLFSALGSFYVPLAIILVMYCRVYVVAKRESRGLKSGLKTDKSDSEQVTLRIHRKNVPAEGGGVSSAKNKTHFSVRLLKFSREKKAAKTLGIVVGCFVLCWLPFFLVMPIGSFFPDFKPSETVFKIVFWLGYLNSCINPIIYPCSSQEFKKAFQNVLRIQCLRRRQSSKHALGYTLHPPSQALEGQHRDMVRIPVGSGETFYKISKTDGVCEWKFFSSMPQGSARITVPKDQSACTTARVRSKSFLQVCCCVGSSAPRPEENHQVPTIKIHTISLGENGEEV
Description: Displacement of [3H]prazosin from alpha-1 adrenergic receptor in rat cerebral cortex after 60 mins by liquid scintillation counting analysis

[4] = molecular target: 5-hydroxytryptamine receptor 2A (Rattus norvegicus, UniProt P14842); test: Displacement of [3H]ketanserin from 5HT2A receptor in rat cerebral cortex after 15 mins by liquid scintillation counting analysis; format: tissue-based
Sequence of 5-hydroxytryptamine receptor 2A (P14842 whole entry): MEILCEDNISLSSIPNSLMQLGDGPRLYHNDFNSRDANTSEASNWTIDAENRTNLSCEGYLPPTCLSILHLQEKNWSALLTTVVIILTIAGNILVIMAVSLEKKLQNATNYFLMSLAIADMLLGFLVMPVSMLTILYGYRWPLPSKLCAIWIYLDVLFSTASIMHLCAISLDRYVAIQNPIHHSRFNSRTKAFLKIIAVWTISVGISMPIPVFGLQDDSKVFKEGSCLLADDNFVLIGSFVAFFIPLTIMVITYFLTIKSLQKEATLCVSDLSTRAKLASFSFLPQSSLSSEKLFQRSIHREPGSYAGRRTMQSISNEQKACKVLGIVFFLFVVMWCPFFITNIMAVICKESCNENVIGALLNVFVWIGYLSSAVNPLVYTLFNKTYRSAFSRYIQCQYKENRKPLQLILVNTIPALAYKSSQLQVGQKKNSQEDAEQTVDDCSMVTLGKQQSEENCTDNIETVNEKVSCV

Sequence of D(2) dopamine receptor (P61169 whole entry): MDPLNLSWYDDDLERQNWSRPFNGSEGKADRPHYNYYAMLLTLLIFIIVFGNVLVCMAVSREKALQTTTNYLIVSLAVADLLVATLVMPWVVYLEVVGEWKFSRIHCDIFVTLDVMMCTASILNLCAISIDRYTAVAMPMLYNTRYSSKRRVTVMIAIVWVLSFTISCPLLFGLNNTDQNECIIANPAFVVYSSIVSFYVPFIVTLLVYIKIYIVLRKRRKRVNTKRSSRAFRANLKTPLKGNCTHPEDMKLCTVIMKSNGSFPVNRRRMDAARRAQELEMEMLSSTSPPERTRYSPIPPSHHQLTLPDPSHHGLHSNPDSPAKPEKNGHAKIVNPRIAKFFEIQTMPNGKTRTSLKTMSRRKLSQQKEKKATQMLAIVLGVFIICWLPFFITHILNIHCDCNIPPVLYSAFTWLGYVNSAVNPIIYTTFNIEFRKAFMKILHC

| SMILES | Ki [1] [nM] | pKi [2] | Ki [3] [nM] | pKi [4] |
| --- | --- | --- | --- | --- |
| Cc1cc(=O)oc2c(Cl)c(OCCCCN3CCC(c4noc5cc(F)ccc45)CC3)ccc12 | 15.6 | 8.59 | 2569.2 | 9.52 |
| COc1ccccc1N1CCN(CCCCOc2ccc3c(C)cc(=O)oc3c2)CC1 | 86.9 | 8.85 | 6.1 | 8.10 |
| Cc1cc(=O)oc2c(C)c(OCCCCN3CCC(c4noc5cc(F)ccc45)CC3)ccc12 | 598.6 | 8.28 | 121.2 | 9.05 |
| Cc1c(C)c2ccc(OCCCCN3CCC(c4noc5cc(F)ccc45)CC3)cc2oc1=O | 124.3 | 8.40 | 139.2 | 9.52 |
| O=c1cc(-c2ccccc2)c2ccc(OCCCCN3CCC(c4noc5cc(F)ccc45)CC3)cc2o1 | 46.9 | 7.83 | > 10000 | 8.04 |
| Cc1cc(=O)oc2cc(OCCCCN3CCC(c4noc5cc(F)ccc45)CC3)ccc12 | 159.6 | 8.31 | 15.8 | 8.08 |
